Experiments:
NCIH460 = experiment: Anti-cancer screen (MTT), NCIH460; format: cell-based; conditions: Homo sapiens, NCI-H460, 48 hours with compound, tested at 0.01-100 µM
Procedure, shortened: (§1)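 Growth inhibition is measured by MTT reduction after 48 h treatment of cells grown in DMEM with 10% fetal bovine serum. Percent growth uses T0 viability, measured just before dosing, so that net cell kill yields negative values and an LC50.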

[1] = tested on: NCIH460, HCT116, MDAMB-231/U 251; experiment: Anti-cancer screen, mean GI50 over the cell lines; format: cell-based; conditions: in µM
Procedure, shortened: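 HCT116, NCIH460 and U251 cells (5000/well) were seeded for 24 h, then exposed in triplicate to 0.01, 0.1, 1, 10 and 100 µM final compound for 48 h. Viability was read by MTT (3 h, absorbance 570 nm), and percent growth was calculated against untreated controls and a T0 plate read at compound addition.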

MDAMB-231/U 251 = experiment: Anti-cancer screen (MTT), MDAMB-231/U 251; format: cell-based; conditions: for CC50: 48 h, read-out: MDAMB-231/U 251 LC50; for GI50 / IC (TGI): 48 hours with compound, MTT, tested at 0.01-100 µM
Procedure, shortened: as §1

HCT116 = experiment: Anti-cancer screen (MTT), HCT116; format: cell-based; conditions: Homo sapiens, HCT-116, 48 hours with compound, tested at 0.01-100 µM
Procedure, shortened: as §1

HDAC = HDAC inhibition; format: biochemical; conditions: for HDAC Inhibition 1 μM: compound at 1 μM; for HDAC Inhibition 10 μM: compound at 10 μM

O=C(CCCNC(=O)Cc1csc(NC(=O)OCc2nc3ccccc3s2)n1)NO [Example 91, 1,3-Benzothiazol-2-ylmethyl[4-(2-{[4-(hydroxyamino)-4-oxobutyl]amino}-2-oxoethyl)-1,3-thiazol-2-yl]carbamate]
GI50 (NCIH460): 35 µM | IC (TGI) (NCIH460): > 100 µM | LC50 (NCIH460): > 100 µM | Mean GI50 [1]: 35.7 | CC50 (MDAMB-231/U 251): > 100 µM | GI50 (MDAMB-231/U 251): 21 µM | IC (TGI) (MDAMB-231/U 251): 89 µM | GI50 (HCT116): 51 µM | IC (TGI) (HCT116): > 100 µM | LC50 (concentration giving 50% net cell kill relative to T0) (HCT116): > 100 µM | HDAC Inhibition 1 μM (HDAC): 10.73 | HDAC Inhibition 10 μM (HDAC): 25.05

O=C(CCCCNC(=O)Cc1csc(NC(=O)OCc2nc3ccccc3s2)n1)NO [Example 93, 1,3-Benzothiazol-2-ylmethyl[4-(2-{[5-(hydroxyamino)-5-oxopentyl]amino}-2-oxoethyl)-1,3-thiazol-2-yl]carbamate]
GI50 (NCIH460): 50 µM | IC (TGI) (NCIH460): > 100 µM | LC50 (NCIH460): > 100 µM | Mean GI50 [1]: 32.3 | CC50 (MDAMB-231/U 251): > 100 µM | GI50 (MDAMB-231/U 251): 7 µM | IC (TGI) (MDAMB-231/U 251): 55 µM | GI50 (HCT116): 40 µM | IC (TGI) (HCT116): 88 µM | LC50 (concentration giving 50% net cell kill relative to T0) (HCT116): > 100 µM | HDAC Inhibition 1 μM (HDAC): 26.26 | HDAC Inhibition 10 μM (HDAC): 76.23

O=C(CCCNC(=O)Cc1csc(NC(=O)OCc2nccs2)n1)NO [Example 95, 1,3-Thiazol-2-ylmethyl[4-(2-{[4-(hydroxyamino)-4-oxobutyl]amino}-2-oxoethyl)-1,3-thiazol-2-yl]carbamate]
GI50 (NCIH460): 93 µM | IC (TGI) (NCIH460): > 100 µM | LC50 (NCIH460): > 100 µM | Mean GI50 [1]: >100 | CC50 (MDAMB-231/U 251): > 100 µM | GI50 (MDAMB-231/U 251): > 100 µM | IC (TGI) (MDAMB-231/U 251): > 100 µM | GI50 (HCT116): > 100 µM | IC (TGI) (HCT116): > 100 µM | LC50 (concentration giving 50% net cell kill relative to T0) (HCT116): > 100 µM | HDAC Inhibition 1 μM (HDAC): −2.89 | HDAC Inhibition 10 μM (HDAC): 4.19

O=C(CCCCCNC(=O)Cc1csc(NC(=O)OCc2nccs2)n1)NO [Example 96, 1,3-Thiazol-2-ylmethyl[4-(2-{[6-(hydroxyamino)-6-oxohexyl]amino}-2-oxoethyl)-1,3-thiazol-2-yl]carbamate]
GI50 (NCIH460): > 100 µM | IC (TGI) (NCIH460): > 100 µM | LC50 (NCIH460): > 100 µM | Mean GI50 [1]: >100 | CC50 (MDAMB-231/U 251): > 100 µM | GI50 (MDAMB-231/U 251): 70 µM | IC (TGI) (MDAMB-231/U 251): > 100 µM | GI50 (HCT116): > 100 µM | IC (TGI) (HCT116): > 100 µM | LC50 (concentration giving 50% net cell kill relative to T0) (HCT116): > 100 µM | HDAC Inhibition 1 μM (HDAC): 52.41 | HDAC Inhibition 10 μM (HDAC): 86.63

O=C(CCCNC(=O)Cc1csc(NC(=O)OCc2ccncc2)n1)NO [Example 97, Pyridin-4-ylmethyl[4-(2-{[4-(hydroxyamino)-4-oxobutyl]amino}-2-oxoethyl)-1,3-thiazol-2-yl]carbamate]
GI50 (NCIH460): 100 µM | IC (TGI) (NCIH460): > 100 µM | LC50 (NCIH460): > 100 µM | Mean GI50 [1]: >100 | CC50 (MDAMB-231/U 251): > 100 µM | GI50 (MDAMB-231/U 251): > 100 µM | IC (TGI) (MDAMB-231/U 251): > 100 µM | GI50 (HCT116): > 100 µM | IC (TGI) (HCT116): > 100 µM | LC50 (concentration giving 50% net cell kill relative to T0) (HCT116): > 100 µM | HDAC Inhibition 1 μM (HDAC): 5.02 | HDAC Inhibition 10 μM (HDAC): 5.80

O=C(Cc1csc(NC(=O)c2ccc(CNC(=O)OCc3cccs3)cc2)n1)NO [Example 101, 2-Thienylmethyl{4-[({4-[2-(hydroxyamino)-2-oxoethyl]-1,3-thiazol-2-yl}amino)carbonyl]benzyl}carbamate]
GI50 (NCIH460): > 100 µM | IC (TGI) (NCIH460): > 100 µM | LC50 (NCIH460): > 100 µM | Mean GI50 [1]: >100 | CC50 (MDAMB-231/U 251): > 100 µM | GI50 (MDAMB-231/U 251): > 100 µM | IC (TGI) (MDAMB-231/U 251): > 100 µM | GI50 (HCT116): 14 µM | IC (TGI) (HCT116): > 100 µM | LC50 (concentration giving 50% net cell kill relative to T0) (HCT116): > 100 µM | HDAC Inhibition 1 μM (HDAC): 8.52 | HDAC Inhibition 10 μM (HDAC): 45.50

O=C(CCCCCNC(=O)c1ccc(CNC(=O)OCc2cccs2)cc1)NO [Example 102, 2-Thienylmethyl[4-({[6-(hydroxyamino)-6-oxohexyl]amino}carbonyl)benzyl]carbamate]
GI50 (NCIH460): 5 µM | IC (TGI) (NCIH460): 9.5 µM | LC50 (NCIH460): 100 µM | Mean GI50 [1]: 4.9 | CC50 (MDAMB-231/U 251): 60 µM | GI50 (MDAMB-231/U 251): 4.8 µM | IC (TGI) (MDAMB-231/U 251): 9.5 µM | GI50 (HCT116): 4.8 µM | IC (TGI) (HCT116): 10 µM | LC50 (concentration giving 50% net cell kill relative to T0) (HCT116): > 100 µM | IC50 (HDAC): 0.25 µM | HDAC Inhibition 1 μM (HDAC): 79.08 | HDAC Inhibition 10 μM (HDAC): 85.52

O=C(NCc1ccc(C(=O)Nc2ccccc2NC(=O)c2ccc3c(c2)OCO3)cc1)OCc1cccs1 [Example 106, 2-thienylmethyl(4-[({(2-{1,3-benzodioxol-5-ylcarbonyl}amino)-phenyl}amino)carbonyl]benzyl)carbamate]
GI50 (NCIH460): 0.44 µM | IC (TGI) (NCIH460): 107 µM | LC50 (NCIH460): > 100 µM | Mean GI50 [1]: 2.8 | CC50 (MDAMB-231/U 251): > 100 µM | GI50 (MDAMB-231/U 251): 5.2 µM | IC (TGI) (MDAMB-231/U 251): > 100 µM | GI50 (HCT116): > 100 µM | IC (TGI) (HCT116): > 100 µM | LC50 (concentration giving 50% net cell kill relative to T0) (HCT116): > 100 µM | HDAC Inhibition 1 μM (HDAC): 2.1 | HDAC Inhibition 10 μM (HDAC): 7.2
